Results from ChEMBL document CHEMBL4818998, “Melatonin derivatives combat with inflammation-related cancer by targeting the Main Culprit STAT3” (Eur J Med Chem, 2021).

Legend:
[1] = tested on: MCF7; experiment: Antiproliferative activity against human MCF7 cells assessed as inhibition of cell proliferation measured after 72 hrs by MTT assay; type: functional, cell-based; conditions: MCF7, 72 h
[2] = tested on: HGC-27; experiment: Antiproliferative activity against human HGC-27 cells assessed as inhibition of cell proliferation measured after 72 hrs by MTT assay; type: functional, cell-based; conditions: HGC-27, 72 h
[3] = tested on: AGS; experiment: Antiproliferative activity against human AGS cells assessed as inhibition of cell proliferation measured after 72 hrs by MTT assay; type: functional, cell-based
[4] = tested on: A549; experiment: Antiproliferative activity against human A549 cells assessed as inhibition of cell proliferation measured after 72 hrs by MTT assay; type: functional, cell-based; conditions: A549, 72 h
[5] = tested on: MGC-803; experiment: Antiproliferative activity against human MGC-803 cells assessed as inhibition of cell proliferation measured after 72 hrs by MTT assay; type: functional, cell-based; conditions: MGC-803, 72 h
[6] = tested on: HepG2; experiment: Antiproliferative activity against human HepG2 cells assessed as inhibition of cell proliferation measured after 72 hrs by MTT assay; type: functional, cell-based; conditions: HepG2, 72 h
[7] = tested on: SGC-7901; experiment: Antiproliferative activity against human SGC-7901 cells assessed as inhibition of cell proliferation measured after 72 hrs by MTT assay; type: functional, cell-based; conditions: SGC-7901, 72 h
[8] = tested on: HCT-116; experiment: Antiproliferative activity against human HCT-116 cells assessed as inhibition of cell proliferation measured after 72 hrs by MTT assay; type: functional, cell-based; conditions: HCT-116, 72 h
[9] = tested on: HCT-116; experiment: Induction of apoptosis in human HCT-116 cells assessed as early apoptotic cells at 20 uM measured after 48 hrs by Annexin V-FITC/PI staining based flow cytometry (reference value: 2.14%); type: functional
[10] = tested on: HCT-116; experiment: Induction of apoptosis in human HCT-116 cells assessed as late apoptotic cells at 20 uM measured after 48 hrs by Annexin V-FITC/PI staining based flow cytometry (reference value: 1.42%); type: functional
[11] = tested on: HCT-116; experiment: Induction of apoptosis in human HCT-116 cells assessed as viable cells at 20 uM measured after 48 hrs by Annexin V-FITC/PI staining based flow cytometry (reference value: 94.9%); type: functional; conditions: read-out: Activity
[12] = tested on: HCT-116; experiment: Induction of apoptosis in human HCT-116 cells assessed as necrotic cells at 20 uM measured after 48 hrs by Annexin V-FITC/PI staining based flow cytometry (reference value: 1.5%); type: functional

Compound	IC50 [1] [µM]	IC50 [2] [µM]	IC50 [3] [µM]	IC50 [4] [µM]	IC50 [5] [µM]	IC50 [6] [µM]	IC50 [7] [µM]	IC50 [8] [µM]	Activity [9] [%]	Activity [10] [%]	viability at 20 µM [11] [%]	Activity [12] [%]
Cc1ccc(S(=O)(=O)Nc2ccccc2C(=O)NCCc2c[nH]c3ccccc23)cc1	> 30	> 30	> 30	> 30	> 30	> 30	> 30	> 30	–	–	–	–
O=C(NCCc1c[nH]c2ccccc12)c1ccccc1NC1CCCCC1	> 30	26.7	> 30	> 30	> 30	28.6	> 30	> 30	–	–	–	–
O=C(NCCc1c[nH]c2ccccc12)c1ccccc1NC1CCCC1	> 30	19.3	> 30	> 30	> 30	28.8	> 30	> 30	–	–	–	–
COc1ccc2[nH]cc(CCNC(=O)c3ccccc3Nc3cccc(Cl)c3C)c2c1	25.3	19.9	16	17.8	9.8	21.9	27.9	20.4	–	–	–	–
O=C(NCCc1c[nH]c2ccccc12)c1ccccc1NCc1ccccc1	> 30	19.9	> 30	> 30	> 30	> 30	> 30	> 30	–	–	–	–
CNc1ccccc1C(=O)NCCc1c[nH]c2ccccc12	> 30	> 30	> 30	> 30	> 30	> 30	> 30	> 30	–	–	–	–
O=C(NCCc1c[nH]c2ccccc12)c1ccccc1NC1CC1	> 30	28.3	> 30	> 30	> 30	28.4	> 30	> 30	–	–	–	–
O=C(NCCc1c[nH]c2ccccc12)c1ccccc1NCCCCO	> 30	> 30	> 30	> 30	> 30	> 30	> 30	> 30	–	–	–	–
Cc1cccc(Nc2ccccc2C(=O)NCCc2c[nH]c3ccc(O)cc23)c1C	25.3	27	8.97	> 30	16.5	17	> 30	22.2	–	–	–	–
COc1ccc(CCNc2ccccc2C(=O)NCCc2c[nH]c3ccccc23)cc1OC	> 30	> 30	> 30	> 30	> 30	> 30	> 30	> 30	–	–	–	–
Cc1cccc(Nc2ccccc2C(=O)NCCc2c[nH]c3ccccc23)c1C	> 30	> 30	16.6	> 30	> 30	21.7	> 30	14.4	–	–	–	–
COc1ccc2[nH]cc(CCNC(C)=O)c2c1 [MELATONIN]	> 30	> 30	> 30	> 30	> 30	> 30	> 30	> 30	–	–	–	–
COc1ccc2[nH]cc(CCNC(=O)c3ccccc3Nc3ccccc3)c2c1	29	> 30	> 30	> 30	12.8	> 30	> 30	24.7	–	–	–	–
CN(c1ccccc1)c1ccccc1C(=O)NCCc1c[nH]c2ccccc12	19.6	> 30	14.7	> 30	11.1	21.3	> 30	17.2	–	–	–	–
O=c1[nH]cc(F)c(=O)[nH]1 [FLUOROURACIL]	13.2	> 30	11	> 30	29.2	> 30	> 30	6.1	5.54	10.4	81.3	2.69
CN(C)c1ccccc1C(=O)NCCc1c[nH]c2ccccc12	> 30	> 30	22.6	> 30	> 30	> 30	> 30	16.6	–	–	–	–
